This is an account of results in ChEMBL document CHEMBL1140567, “2-Aryl benzimidazoles featuring alkyl-linked pendant alcohols and amines as inhibitors of checkpoint kinase Chk2” (Bioorg Med Chem Lett, 2007).

Series [1] is described as follows: Solubility in stimulated intestinal fluid at pH 7 after 3 days. As to conditions: simulated intestinal fluid. It counts as physicochemical.
Series [2] is described as follows: Solubility in stimulated gastric fluid at pH 2 umol after 3 days. In kind it is physicochemical. The conditions noted are these: simulated gastric fluid.

SMILES strings stand for the structures. ≈ marks a conversion by molar mass, not a printed value.

The solubility is the concentration that dissolves in the medium under given conditions. A higher solubility goes with much dissolved substance. As to `NC(=O)c1ccc2[nH]c(-c3ccc(OCCO)cc3)nc2c1`, the solubility at 72 h in series [1] and in series [2] was more than 400 µM each time.

`CC(=O)N1CCC(CCOc2ccc(-c3nc4cc(C(N)=O)ccc4[nH]3)cc2)CC1`: the values for the solubility at 72 h in series [1] and in series [2] were 2 µM (≈ 0.813 µg/mL) and 87 µM (≈ 35.4 µg/mL), respectively.

Turning to `CN(C)CCCOc1ccc(-c2nc3cc(C(N)=O)ccc3[nH]2)cc1`, the solubility at 72 h in series [1] and in series [2] was more than 400 µM each time.

For the compound `NC(=O)c1ccc2[nH]c(-c3ccc(OC4CCCNC4)cc3)nc2c1` (stereo not given), the solubility at 72 h in series [1] and in series [2] was more than 400 µM each time.

`NC(=O)c1ccc2[nH]c(-c3ccc(OCCC4CCN(C(=O)c5ccccc5)CC4)cc3)nc2c1`: the solubility at 72 h in series [1] and in series [2] was 3 µM (≈ 1.41 µg/mL) in each case.

With `NC(=O)c1ccc2[nH]c(-c3ccc(OCCC4CCCCN4C(=O)c4ccccc4)cc3)nc2c1` (stereo not given), the solubility at 72 h is 18 µM (≈ 8.43 µg/mL) in series [1] and 28 µM (≈ 13.1 µg/mL) in series [2].

As to `NC(=O)c1ccc2[nH]c(-c3ccc(OCCCO)cc3)nc2c1`, the solubility at 72 h was 7 µM (≈ 2.18 µg/mL) in series [1] and 185 µM (≈ 57.6 µg/mL) in series [2].

In the case of `NC(=O)c1ccc2[nH]c(-c3ccc(OCC4CCNCC4)cc3)nc2c1`, the solubility at 72 h in series [1] and in series [2] was more than 400 µM in each case.

Take `NC(=O)c1ccc2[nH]c(-c3ccc(OCCC4CCCCN4Cc4ccc(Cl)c(Cl)c4)cc3)nc2c1` (stereo not given): the results for the solubility at 72 h in series [1] and in series [2] were 229 µM (≈ 120 µg/mL) and 39 µM (≈ 20.4 µg/mL), respectively.

For `NC(=O)c1ccc2[nH]c(-c3ccc(OCCC4CCCCN4Cc4ccccc4)cc3)nc2c1` (stereo not given), the figures for the solubility at 72 h in series [1] and in series [2] were 155 µM (≈ 70.5 µg/mL) and more than 400 µM, respectively.

Take `NC(=O)c1ccc2[nH]c(-c3ccc(OCCC4CCN(Cc5ccc(Cl)c(Cl)c5)CC4)cc3)nc2c1`: the results for the solubility at 72 h in series [1] and in series [2] were 15 µM (≈ 7.85 µg/mL) and 13 µM (≈ 6.81 µg/mL), respectively.

As to `Cc1ccc(CN2CCC(CCOc3ccc(-c4nc5cc(C(N)=O)ccc5[nH]4)cc3)CC2)cc1`, the solubility at 72 h in series [1] was 3 µM (≈ 1.41 µg/mL); in series [2], 84 µM (≈ 39.4 µg/mL).

Consider `NC(=O)c1ccc2[nH]c(-c3ccc(OC4CCC(O)C4)cc3)nc2c1` (stereo not given), for which the solubility at 72 h is 139 µM (≈ 46.9 µg/mL) in series [1] and more than 400 µM in series [2].

`NC(=O)c1ccc2[nH]c(-c3ccc(OCCC4CCCCN4Cc4ccc(Cl)cc4)cc3)nc2c1` (stereo not given): the solubility at 72 h in series [1] is 115 µM (≈ 56.2 µg/mL); in series [2], more than 400 µM.

On to `COc1ccc(CN2CCCCC2CCOc2ccc(-c3nc4cc(C(N)=O)ccc4[nH]3)cc2)cc1` (stereo not given), for which the results for the solubility at 72 h in series [1] and in series [2] were 84 µM (≈ 40.7 µg/mL) and more than 400 µM, respectively.

For `CC(=O)N1CCCCC1CCOc1ccc(-c2nc3cc(C(N)=O)ccc3[nH]2)cc1` (stereo not given), the solubility at 72 h was 193 µM (≈ 78.5 µg/mL) in series [1] and more than 400 µM in series [2].

As for `NC(=O)c1ccc2[nH]c(-c3ccc(OCCC4CCN(Cc5ccccc5)CC4)cc3)nc2c1`, the solubility at 72 h was 5 µM (≈ 2.27 µg/mL) in series [1] and 110 µM (≈ 50 µg/mL) in series [2].

For `NC(=O)c1ccc2[nH]c(-c3ccc(OCCC4CCN(Cc5ccc(Cl)cc5)CC4)cc3)nc2c1`, the solubility at 72 h is 2 µM (≈ 0.978 µg/mL) in series [1] and 179 µM (≈ 87.5 µg/mL) in series [2].

Consider `CN1CCC(Oc2ccc(-c3nc4cc(C(N)=O)ccc4[nH]3)cc2)CC1`, for which the solubility at 72 h in series [1] and in series [2] was more than 400 µM throughout.

For `NC(=O)c1ccc2[nH]c(-c3ccc(OCC4CCN(Cc5ccccc5)CC4)cc3)nc2c1`, the solubility at 72 h in series [1] and in series [2] was more than 400 µM throughout.

As to `NC(=O)c1ccc2[nH]c(-c3ccc(OCC4CCCN(Cc5ccccc5)C4)cc3)nc2c1` (stereo not given), the solubility at 72 h in series [1] was 267 µM (≈ 118 µg/mL); in series [2], more than 400 µM.

Take `Cc1ccc(CN2CCCCC2CCOc2ccc(-c3nc4cc(C(N)=O)ccc4[nH]3)cc2)cc1` (stereo not given): the solubility at 72 h was 97 µM (≈ 45.5 µg/mL) in series [1] and more than 400 µM in series [2].

Turning to `NC(=O)c1ccc2[nH]c(-c3ccc(OCCCN4CCCCC4)cc3)nc2c1`, the solubility at 72 h in series [1] and in series [2] was more than 400 µM in each case.

On to `COc1ccc(CN2CCC(CCOc3ccc(-c4nc5cc(C(N)=O)ccc5[nH]4)cc3)CC2)cc1`, for which the solubility at 72 h is less than 1 µM in series [1] and more than 400 µM in series [2].

As to `NC(=O)c1ccc2[nH]c(-c3ccc(OCCN4CCCCC4)cc3)nc2c1`, the solubility at 72 h in series [1] and in series [2] was more than 400 µM each time.
